Values of other authors, collected in patent US20190026423A1, “Cycle Closure Estimation of Relative Binding Affinities and Errors” (Schrödinger, LLC, priority 2013, published 2019).
Like-named read-outs stand apart in the source and are kept apart here.

Target: CDK2-cyclin A receptor (Homo sapiens, UniProt P24941)
Settings: experimental binding free energy
[1] = 6 ligands with crystal structures
[2] = ligands without crystal structures

Row | Compound | ΔG(EXP) [1] | ΔG(EXP) [2]
1 | Cc1cccc(Nc2nc(OCC3CCCCC3)c3nc[nH]c3n2)c1 [Compound 1h1r] | -7.67 kcal/mol | 
2 | CS(=O)(=O)c1cccc(Nc2nc(OCC3CCCCC3)c3nc[nH]c3n2)c1 [Compound 1oiu] | -9.08 kcal/mol | 
3 | CC(=O)c1ccc(Nc2nc(OCC3CCCCC3)c3nc[nH]c3n2)cc1 [Compound 1oiy] | -9.79 kcal/mol | 

The next lines start with the values.

Row | ΔG(EXP) [1] | ΔG(EXP) [2] | Compound
4 |  | -7.04 kcal/mol | Cc1cccc(Nc2nc(OCC3CCCCC3)c3nc[nH]c3n2)c1 [Compound 17]
5 |  | -8.72 kcal/mol | CCc1cccc(Nc2nc(OCC3CCCCC3)c3nc[nH]c3n2)c1 [Compound 20]
